Data set [1] deals with human dermal fibroblasts. Description: Immunodetection of elastin in cultured human dermal fibroblasts. It is filed as cell-based. The protocol:
(§1) Biological effects of tannic acid in the presence of hyaluronic acid or ferulic acid were tested on dermal fibroblasts derived from punch biopsies of healthy skin. All fibroblasts were isolated by allowing migration out of skin explants and passaged by trypsinization. Fibroblasts were maintained in alpha-minimum essential medium supplemented with 20 mM HEPES, 1% antibiotics and antimycotics, 1% L-Glutamate and 2% fetal bovine serum (FBS). Cells were plated ([…] cells/dish) to reach confluency and were cultured for 7 days in the presence or absence of hyaluronic acid (0.1%), ferulic acid ([…]), tannic acid (2 μg/mL), or a combination thereof.
(§2) Cell cultures prepared according to Example 1 maintained in the presence or absence of tannic acid, hyaluronic acid, or ferulic acid were fixed in cold 100% methanol at […] for detection of elastin or in 4% paraformaldehyde at room temperature for detection of collagen I. The multiple parallel cultures were incubated with […] of polyclonal antibody to tropoelastin (Elastin Products, Owensville, Mich.), or polyclonal antibody to collagen type I (Chemicon, Temecula, Calif.). Cultures were incubated with the respective fluorescein-conjugated goat anti-rabbit, goat anti-mouse, or rabbit anti-goat secondary antibodies. Nuclei were counter stained with propidium iodide (Sigma, St. Louis, Mo.). All cultures were examined with a Nikon Eclipse E1000 microscope attached to a cooled CCD camera (QImaging, Retiga EX) and analyzed with the computer-generated morphometric analysis system, in which the Image-Pro Plus software (Media Cybernetics, Silver Springs, Md.) estimates the proportion of areas marked with green fluorescence, in relation to the entire (1 square mm) analyzed field.
Cultured human dermal fibroblasts were grown in the presence or absence of tannic acid at low concentration (2 μg/mL) and high concentration (20 μg/mL). Immunodetection of elastin was performed as described in Example 2.
(§3) Cultured human dermal fibroblasts were grown in the presence of or absence of vitamin D (10^−7 M), tannic acid ([…]), or a combination of vitamin D and tannic acid (2 μg/mL) (FIGS. 2A-2B and FIGS. 3A-3C). Immunodetection of elastin was performed as described above.
Cultured human dermal fibroblasts were grown in the presence of or absence hyaluronic acid (0.1%), tannic acid (2 μg/mL), or a combination of hyaluronic acid (0.1%) and tannic acid (2 μg/mL). Immunodetection of elastin was performed as described above.
Cultured human dermal fibroblasts were grown in the presence or absence of ferulic acid (5 μg/mL), tannic acid (2 μg/mL), or a combination of ferulic acid (5 μg/mL) and tannic acid (2 μg/mL). Immunodetection of elastin and collagen I was performed as described above. Results are shown in FIGS. 5A-5C, and FIGS. 6A-6B for elastin and FIGS. 7A-7C and FIG. 8 for collagen.
Cultured human dermal fibroblasts were grown in the presence or absence of ferulic acid (20 μM), tannic acid (2 μg/mL), or copper sulfate (2 μM). Fibroblasts were also grown in presence of a combination of ferulic acid (20 μM) and copper sulfate (2 μM), a combination of ferulic acid (20 μM) and tannic acid (2 μg/mL), and a combination of tannic acid (2 μg/mL) and copper sulfate (2 μM). Immunodetection of elastin was performed as described above.

For data set [2], the system named is human dermal fibroblasts. The data set can be described thus: Immunodetection of collagen I in cultured human dermal fibroblasts. It is filed as cell-based. The note with it: ferulic acid (5 μg/mL) alone. The protocol: as §1
as §2, with “All cultures were examined with a Nikon Eclipse E1000 microscope attached to a cooled CCD camera (QImaging, Retiga EX) and analyzed with the computer-generated morphometric analysis system, in which the Image-Pro Plus software (Media Cybernetics, Silver Springs, Md.) estimates the proportion of areas marked with green fluorescence, in relation to the entire (1 square mm) analyzed field.” left out

For data set [3] the following is noted: cited from earlier work.
A further data set deals with fibroblast cultures. Description: Tropoelastin in fibroblast cultures measured using PCR. The class given is cell-based, human. The settings on record: PCR after 18 hours; tannic acid added to cultures that contained vitamin D3. The protocol: FIG. 2A depicts the amount of tropoelastin in fibroblast cultures measured using PCR after 18 hours.
as §3

Where [4] appears, read: tannic acid (2 μg/mL) added to hyaluronic acid (0.1%).
The mark [5] stands for this setting: tannic acid (2 μg/mL) added to vitamin D (10^−7 M).

Regarding `O=S(=O)([O-])[O-].[Cu+2]` [copper sulfate, reference compound], in the data set on human dermal fibroblasts [1] (copper sulfate (2 μM)), the effect on elastin entry is reported as “little effect on elastin”.
Take `COc1cc(/C=C/C(=O)O)ccc1O` [ferulic acid]: in the data set with human dermal fibroblasts [1] (ferulic acid (5 μg/mL) alone), the concentrations of elastin entry was “negative effect on concentrations of elastin”. The effect on elastin entry with human dermal fibroblasts [1] (ferulic acid (20 μM)) is “leads to a reduction in elastin”. Moreover, the concentrations of collagen entry with human dermal fibroblasts [2] is listed as “minimal effect on concentrations of collagen”.
Regarding `O=C(OC[C@H]1O[C@@H](OC(=O)c2cc(O)c(O)c(OC(=O)c3cc(O)c(O)c(O)c3)c2)[C@H](OC(=O)c2cc(O)c(O)c(OC(=O)c3cc(O)c(O)c(O)c3)c2)[C@@H](OC(=O)c2cc(O)c(O)c(OC(=O)c3cc(O)c(O)c(O)c3)c2)[C@@H]1OC(=O)c1cc(O)c(O)c(OC(=O)c2cc(O)c(O)c(O)c2)c1)c1cc(O)c(O)c(OC(=O)c2cc(O)c(O)c(O)c2)c1` [tannic acid], in data set [3], the pKa entry is “about 6”. For the same molecule, the production of elastin entry with human dermal fibroblasts [1] (tannic acid (2 μg/mL) added to ferulic acid (5 μg/mL)) is “improved production of elastin even in the presence of ferulic acid”. Moreover, the elastin fiber formation result is “abolished the inhibitory effect of hyaluronic acid on elastin fiber formation” in the data set on human dermal fibroblasts [1] (setting [4]) and “abolished the inhibitory effect of vitamin D on elastin fiber formation” with human dermal fibroblasts [1] (setting [5]). Moreover, the “net deposition of elastin” value in the data set on human dermal fibroblasts [1] (setting [4]) and in the data set with human dermal fibroblasts [1] (setting [5]) was “caused an improvement in net deposition of elastin” in each case. The elastin concentration entry with human dermal fibroblasts [1] (tannic acid at high concentration (20 μg/mL)) is listed as “caused elastosis”; in the data set with human dermal fibroblasts [1] (tannic acid at low concentration (2 μg/mL), compared to high concentration), “improved elastin concentration”. Also, the amount of tropoelastin result in the data set with fibroblast cultures is “increased the amount of tropoelastin”.
As to hyaluronic acid, in the data set on human dermal fibroblasts [1] (hyaluronic acid (0.1%) alone), the elastin production result is reported as “causes inhibition of elastin production”.
With vitamin D [reference compound], the elastin production result in the data set on human dermal fibroblasts [1] (vitamin D (10^−7 M) alone) is “causes inhibition of elastin production”.
